Where a SMILES comes first, the peptide text is derived from it. [ ]: non-standard residue; d: D form. The star is where a group is joined. dPhe(4-NHCONH2) = NC(=O)Nc1ccc(C[C@@H](N)C(=O)O)cc1; Dihydroorotyl(S) = O=C1C[C@@H](C(=O)*)NC(=O)N1; dPhe(4-Cl) = N[C@H](Cc1ccc(Cl)cc1)C(=O)O; Phe(4-NH2) = Nc1ccc(C[C@H](N)C(=O)O)cc1; d2Nal = N[C@H](Cc1ccc2ccccc2c1)C(=O)O; Lys(iPr) = CC(C)NCCCC[C@H](N)C(=O)O; NMeY = CN[C@@H](Cc1ccc(O)cc1)C(=O)O; d3Pal = N[C@H](Cc1cccnc1)C(=O)O
Assays:
[1] = human, in vivo; cited from earlier work
testosterone = experiment: Plasma level needed to prevent testosterone breakthrough (rat); format: in vivo; settings: between doses
Procedure: In the rat, the mean plasma concentration level of degarelix which is necessary to ensure there is no testosterone breakthrough between doses is 6 ng/mL, and this value was therefore selected as the target level for the present work. In other words, if the mean plasma concentration of degarelix is 6 ng/mL or greater after administration of a given formula, this is a good indicator that the formulation would be effective (for the duration of the study).

[2] = Target plasma level calculated for pigs; format: in vivo, pig
Excerpt: These very initial studies in this pig model are understood to represent proof of concept that formulations of the invention may be able to provide sustained release for up to three months, especially after IM administration, in a human model.

[3] = in vivo

SMILES	allergic reaction risk [1]	mean plasma concentration necessary to ensure no testosterone breakthrough (testosterone)	target level of mean degarelix concentration [2]	efficacy and tolerability [3]
CC(=O)N[C@H](Cc1ccc2ccccc2c1)C(=O)N[C@H](Cc1ccc(Cl)cc1)C(=O)N[C@H](Cc1cccnc1)C(=O)N[C@@H](CO)C(=O)N(C)[C@@H](Cc1ccc(O)cc1)C(=O)N[C@H](CC(N)=O)C(=O)N[C@@H](CC(C)C)C(=O)N[C@@H](CCCCNC(C)C)C(=O)N1CCC[C@H]1C(=O)N[C@H](C)C(N)=O [Abarelix] (Ac-[d2Nal][dPhe(4-Cl)][d3Pal]S[NMeY][dN]L[Lys(iPr)]P[dA]-NH2)	risk of serious allergic reactions, including anaphylaxis with hypotension and syncope			
CC(=O)N[C@H](Cc1ccc2ccccc2c1)C(=O)N[C@H](Cc1ccc(Cl)cc1)C(=O)N[C@H](Cc1cccnc1)C(=O)N[C@@H](CO)C(=O)N[C@@H](Cc1ccc(NC(=O)[C@@H]2CC(=O)NC(=O)N2)cc1)C(=O)N[C@H](Cc1ccc(NC(N)=O)cc1)C(=O)N[C@@H](CC(C)C)C(=O)N[C@@H](CCCCNC(C)C)C(=O)N1CCC[C@H]1C(=O)N[C@H](C)C(N)=O [degarelix, D-Alaninamide, N-acetyl-3-(2-naphthalenyl)-D-alanyl-4-chloro-D-phenylalanyl-3-(3-pyridinyl)-D-alanyl-L-seryl-4-[[[(4S)-hexahydro-2,6-dioxo-4-pyrimidinyl]carbonyl]amino]-L-phenylalanyl-4-[(aminocarbonyl)amino]-D-phenylalanyl-L leucyl-N6-(1-methylethyl)-L-lysyl-L-prolyl] (Ac-[d2Nal][dPhe(4-Cl)][d3Pal]S[Phe(4-NH2)](Dihydroorotyl(S))[dPhe(4-NHCONH2)]L[Lys(iPr)]P[dA]-NH2)		6 ng/mL	8 ng/mL	effective and well-tolerated without evidence of systemic allergic reactions

Source: patent US10441626B2, “Microparticles comprising GNRH made by PGSS” (Ferring B.V., priority 2013, dated 2019)
